# Assay results published in the NIST ThermoML archive (doi:10.1021/je9002724).
# ± gives the expanded uncertainty stated by the source.
# Assay: activity coefficient (dimensionless); of the first substance listed, at infinite dilution; xn = mol fraction of the nth substance listed
# Details: Liquid, Chromatography, x1 = 0
activity coefficient (303.15 K),activity coefficient (313.15 K),activity coefficient (323.15 K),activity coefficient (333.15 K),activity coefficient (343.15 K),activity coefficient (353.15 K),activity coefficient (363.15 K),Structure (SMILES)
498 ± 52,532 ± 56,574 ± 61,615 ± 65,659 ± 70,709 ± 75,760 ± 80,CCCCCCCC [octane] + C[n+]1ccn(CCO)c1.F[B-](F)(F)F
328 ± 35,373 ± 39,421 ± 44,486 ± 51,546 ± 58,611 ± 64,677 ± 71,CC1CCCCC1 [methylcyclohexane] + C[n+]1ccn(CCO)c1.F[B-](F)(F)F
42.1 ± 4.4,40.6 ± 4.3,39 ± 4.1,37.9 ± 4,36.7 ± 3.9,35.9 ± 3.8,35 ± 3.7,CCc1ccccc1 [ethylbenzene] + C[n+]1ccn(CCO)c1.F[B-](F)(F)F
9.13 ± 0.96,9.11 ± 0.96,9.1 ± 0.96,9.08 ± 0.95,9.06 ± 0.95,9.05 ± 0.95,9.04 ± 0.95,c1ccccc1 [benzene] + C[n+]1ccn(CCO)c1.F[B-](F)(F)F
123 ± 13,118 ± 12,114 ± 12,110 ± 12,106 ± 11,103 ± 11,100 ± 11,C1=CCCCC1 [cyclohexene] + C[n+]1ccn(CCO)c1.F[B-](F)(F)F
15.3 ± 1.6,15.1 ± 1.6,14.8 ± 1.6,14.6 ± 1.5,14.4 ± 1.5,14.2 ± 1.5,14 ± 1.5,C=Cc1ccccc1 [styrene] + C[n+]1ccn(CCO)c1.F[B-](F)(F)F
620 ± 65,850 ± 90,1200 ± 130,1610 ± 170,2190 ± 230,2980 ± 310,4220 ± 450,CCCCCCC [heptane] + C[n+]1ccn(CCO)c1.F[B-](F)(F)F
339 ± 36,418 ± 44,488 ± 52,593 ± 63,689 ± 73,803 ± 85,934 ± 99,C1CCCCC1 [cyclohexane] + C[n+]1ccn(CCO)c1.F[B-](F)(F)F
412 ± 44,523 ± 55,731 ± 77,962 ± 100,1300 ± 140,1700 ± 180,2310 ± 240,"CC(C)CC(C)(C)C [2,2,4-trimethylpentane] + C[n+]1ccn(CCO)c1.F[B-](F)(F)F"
546 ± 58,564 ± 60,582 ± 61,599 ± 63,616 ± 65,633 ± 67,651 ± 69,CCCCCCCCC [nonane] + C[n+]1ccn(CCO)c1.F[B-](F)(F)F

Structure (SMILES),activity coefficient (303.15 K),activity coefficient (313.15 K),activity coefficient (323.15 K),activity coefficient (333.15 K),activity coefficient (343.15 K),activity coefficient (353.15 K),activity coefficient (363.15 K)
"Cc1cccc(C)c1 [1,3-dimethylbenzene] + C[n+]1ccn(CCO)c1.F[B-](F)(F)F",37.2 ± 3.9,36.3 ± 3.8,35.5 ± 3.7,34.7 ± 3.7,34 ± 3.6,33.2 ± 3.5,32.5 ± 3.4
"Cc1ccc(C)cc1 [1,4-dimethylbenzene] + C[n+]1ccn(CCO)c1.F[B-](F)(F)F",35.4 ± 3.7,34.7 ± 3.6,33.9 ± 3.6,33.2 ± 3.5,32.5 ± 3.4,32 ± 3.4,31.4 ± 3.3
Cc1ccccc1 [toluene] + C[n+]1ccn(CCO)c1.F[B-](F)(F)F,18.3 ± 1.9,18 ± 1.9,17.7 ± 1.9,17.5 ± 1.8,17.3 ± 1.8,17.2 ± 1.8,16.9 ± 1.8
"Cc1ccccc1C [1,2-dimethylbenzene] + C[n+]1ccn(CCO)c1.F[B-](F)(F)F",28.9 ± 3,28.2 ± 3,27.7 ± 2.9,27 ± 2.8,26.5 ± 2.8,25.9 ± 2.7,25.4 ± 2.7
